Source: patent publication US20220395522A1, “Methods of Use of Glucosamine for Increasing Nitrogen Retention” (TSI Bioproducts (Xuzhou) Co., Ltd., priority 2021, published 2022)
Where two headings read alike, the source gives them in different places.

Assay type: in vivo, human
Details: for Fecal 3-Hydroxybutyrate / Fecal Acetate / Fecal Alanine / Fecal Butyrate / Fecal Cadaverine / Fecal Ethanol / Fecal Formate / Fecal Fumarate / Fecal Glucose / Fecal Glutamate / Fecal Glycerol / Fecal Glycine / Fecal Hypoxanthine / Fecal Isobutyrate / Fecal Isoleucine / Fecal Isovalerate / Fecal Lactate / Fecal Leucine / Fecal Lysine / Fecal Methionine / Fecal Methionine-sulfoxide / Fecal N-Acetylglucosamine / Fecal Nicotinate / Fecal Phenylacetate / Fecal Phenylalanine / Fecal Proline / Fecal Propionate / Fecal Putrescine / Fecal Ribose / Fecal Succinate / Fecal Threonine / Fecal Total AA / Fecal Total BCAAs / Fecal Total SCFA / Fecal Tyrosine / Fecal Uracil / Fecal Urocanate / Fecal Valerate / Fecal Valine / Fecal Xylose / Fecal p-Cresol: GLU condition, mean ± SD
Source text: Stool specimens were collected at four time points throughout the entire study protocol. The first two samples were collected before and after the first supplementation period while the final two samples were collected before and after the second supplementation period. All stool specimens were collected no more than 24-hours prior to that study participant being scheduled to complete their laboratory visit. All samples were immediately frozen after sample collection by the study participants. Participants were instructed to keep their samples in the freezer and to remove them at the latest possible time to minimize thawing during transfer to the laboratory for storage. Participants were provided with all materials necessary to collect, store, and transport the stool specimen including commode fecal collection system, fecal collection tubes with screw top lids and scoops attached, disposable gloves, freezer packs, specimen labels, and transfer containers. Participants were instructed to raise the toilet seat and place the stool collection frame on the back of the toilet bowl and then lower the toilet seat down and place collection bowl in frame. Participants then sat on the toilet and collected a stool sample into the container. Participants were instructed, if possible, to not urinate into the collection container. Participants then extracted a representative stool sample and filled each of the two provided sample collection tubes. Tubes were then secured, labeled, and frozen. All remaining stool was discarded into the toilet and flushed. Upon arrival in the laboratory each sample was immediately stored at −80° C.
A Fecal Metabolome Analysis was further conducted. Samples were manually homogenized with a sterile microspatula, and approximately 250 mg of fecal material was weighed and extracted using 1.5 mL of ice-cold Dulbecco's phosphate buffered saline (DPBS, 1×, pH 7.4). After extraction, samples were centrifuged, and the pellet was dried using a Labconco FreeZone 4.5 L Freeze Dry System to determine fecal dry weight. The supernatant was sequentially filtered through a 0.22 μm pore-size syringe filter (Millex-GP syringe filter, Millipore, Billerica, Mass.) to remove microbes followed by a 3 kDa ultracentrifugal filter (Amicon ultracentrifugal filter, Millipore, Billerica, Mass.) to remove any excess proteins. To 207 […], 23 […] (5 mM DSS-d6 (trimethylsilylpropanesulfonate) containing 0.2% NaN3 in 99.8% D20 was added to aid in quantification of metabolites. The pH of each sample was adjusted to 6.8±0.1 through addition of small amounts of NaOH or HCl. Samples were transferred to 3 mm Bruker NMR tubes (Bruker, Brillerica, Mass.) and stored at 4° C. until spectral acquisition. Nuclear magnetic resonance (NMR) spectra were acquired using a Bruker Avance 600 MHz NMR spectrometer equipped with a SampleJet autosampler (Bruker BioSpin, Germany) at 298 K using the NOESY 1H presaturation experiment (‘noesypr1d’). Data were acquired with a spectral width of 12 ppm, a 2.5-second acquisition time, a relaxation delay of 2.5 seconds, and a 100-millisecond mixing time using 32 transients and 8 dummy scans. Water saturation was applied during the relaxation delay and mixing time. Each spectrum was Fourier Transformed with zero filling to 128,000 data points, and the resulting Free Induction Decay (FID) was transformed with an exponential apodization function corresponding to a line-broadening of 0.5 Hz. Spectra were subsequently phased and baseline corrected using Chenomx NMRSuite Processor v8.3 (Chenomx Inc., Edmonton, Canada). Metabolites were identified and quantified based on the known concentration of the internal standard, using Chenomx NMRSuite Profiler v8.3 based on the established method of targeted profiling.

[1] = Post 21 days, 3 x 1,000 mg/day oral

Cl.N[C@H]1C(O)O[C@H](CO)[C@@H](O)[C@@H]1O (some centres unmarked) [GLU, glucosamine hydrochloride]
Fecal 3-Hydroxybutyrate [1]: 76 ± 35 | Fecal Acetate [1]: 43,680 ± 11,351 | Fecal Alanine [1]: 2228 ± 721 | Fecal Butyrate [1]: 13,538 ± 6558 | Fecal Cadaverine [1]: 165 ± 56 | Fecal Ethanol [1]: 272 ± 187 | Fecal Formate [1]: 403 ± 299 | Fecal Fumarate [1]: 218 ± 115 | Fecal Glucose [1]: 3334 ± 2753 | Fecal Glutamate [1]: 6773 ± 2223 | Fecal Glycerol [1]: 6397 ± 3575 | Fecal Glycine [1]: 965 ± 399 | Fecal Hypoxanthine [1]: 325 ± 143 | Fecal Isobutyrate [1]: 1956 ± 1334 | Fecal Isoleucine [1]: 777 ± 388 | Fecal Isovalerate [1]: 1712 ± 1304 | Fecal Lactate [1]: 172 ± 396 | Fecal Leucine [1]: 1094 ± 496 | Fecal Lysine [1]: 1454 ± 554 | Fecal Methionine [1]: 352 ± 210 | Fecal Methionine-sulfoxide [1]: 202 ± 149 | Fecal N-Acetylglucosamine [1]: 187 ± 152 | Fecal Nicotinate [1]: 271 ± 106 | Fecal Phenylacetate [1]: 999 ± 786 | Fecal Phenylalanine [1]: 544 ± 208 | Fecal Proline [1]: 654 ± 326 | Fecal Propionate [1]: 12,663 ± 5766 | Fecal Putrescine [1]: 115 ± 61 | Fecal Ribose [1]: 1332 ± 533 | Fecal Succinate [1]: 758 ± 430 | Fecal Threonine [1]: 659 ± 252 | Fecal Total AA [1]: 17,208 ± 5190 | Fecal Total BCAAs [1]: 2873 ± 1312 | Fecal Total SCFA [1]: 76,527 ± 25,492 | Fecal Tyrosine [1]: 707 ± 273 | Fecal Uracil [1]: 684 ± 287 | Fecal Urocanate [1]: 85 ± 48 | Fecal Valerate [1]: 2574 ± 1519 | Fecal Valine [1]: 1003 ± 451 | Fecal Xylose [1]: 702 ± 545 | Fecal p-Cresol [1]: 551 ± 537 | Fecal 3-Hydroxybutyrate (Pre (baseline)): 89 ± 62 | Fecal Acetate (Pre (baseline)): 40,675 ± 12,876 | Fecal Alanine (Pre (baseline)): 2667 ± 1134 | Fecal Butyrate (Pre (baseline)): 11,370 ± 5781 | Fecal Cadaverine (Pre (baseline)): 170 ± 52 | Fecal Ethanol (Pre (baseline)): 169 ± 98 | Fecal Formate (Pre (baseline)): 298 ± 166 | Fecal Fumarate (Pre (baseline)): 225 ± 151 | Fecal Glucose (Pre (baseline)): 2229 ± 2054 | Fecal Glutamate (Pre (baseline)): 8882 ± 3831 | Fecal Glycerol (Pre (baseline)): 7458 ± 7347 | Fecal Glycine (Pre (baseline)): 1207 ± 514 | Fecal Hypoxanthine (Pre (baseline)): 414 ± 190 | Fecal Isobutyrate (Pre (baseline)): 2097 ± 887 | Fecal Isoleucine (Pre (baseline)): 1029 ± 462 | Fecal Isovalerate (Pre (baseline)): 1885 ± 886 | Fecal Lactate (Pre (baseline)): 60 ± 49 | Fecal Leucine (Pre (baseline)): 1422 ± 622 | Fecal Lysine (Pre (baseline)): 1834 ± 815 | Fecal Methionine (Pre (baseline)): 424 ± 290 | Fecal Methionine-sulfoxide (Pre (baseline)): 258 ± 191 | Fecal N-Acetylglucosamine (Pre (baseline)): 249 ± 147 | Fecal Nicotinate (Pre (baseline)): 327 ± 162 | Fecal Phenylacetate (Pre (baseline)): 1095 ± 511 | Fecal Phenylalanine (Pre (baseline)): 629 ± 280 | Fecal Proline (Pre (baseline)): 687 ± 280 | Fecal Propionate (Pre (baseline)): 12,596 ± 4145 | Fecal Putrescine (Pre (baseline)): 92 ± 59 | Fecal Ribose (Pre (baseline)): 1428 ± 760 | Fecal Succinate (Pre (baseline)): 635 ± 289 | Fecal Threonine (Pre (baseline)): 831 ± 355 | Fecal Total AA (Pre (baseline)): 21,838 ± 8104 | Fecal Total BCAAs (Pre (baseline)): 3802 ± 1674 | Fecal Total SCFA (Pre (baseline)): 71,612 ± 22,891 | Fecal Tyrosine (Pre (baseline)): 874 ± 394 | Fecal Uracil (Pre (baseline)): 922 ± 352 | Fecal Urocanate (Pre (baseline)): 104 ± 57 | Fecal Valerate (Pre (baseline)): 2691 ± 1314 | Fecal Valine (Pre (baseline)): 1351 ± 610 | Fecal Xylose (Pre (baseline)): 441 ± 420 | Fecal p-Cresol (Pre (baseline)): 597 ± 330 | Fecal 3-Hydroxybutyrate, % (PLA vs. GLU, between-group): 4.3% | Fecal Acetate, % (PLA vs. GLU, between-group): 0.5% | Fecal Alanine, % (PLA vs. GLU, between-group): −33.4% | Fecal Butyrate, % (PLA vs. GLU, between-group): 14.3% | Fecal Cadaverine, % (PLA vs. GLU, between-group): −29.1% | Fecal Ethanol, % (PLA vs. GLU, between-group): 123.7% | Fecal Formate, % (PLA vs. GLU, between-group): 30.7% | Fecal Fumarate, % (PLA vs. GLU, between-group): −29.4% | Fecal Glucose, % (PLA vs. GLU, between-group): 61.4% | Fecal Glutamate, % (PLA vs. GLU, between-group): −30.7% | Fecal Glycerol, % (PLA vs. GLU, between-group): −33.0% | Fecal Glycine, % (PLA vs. GLU, between-group): −34.5% | Fecal Hypoxanthine, % (PLA vs. GLU, between-group): −27.1% | Fecal Isobutyrate, % (PLA vs. GLU, between-group): −38.6% | Fecal Isoleucine, % (PLA vs. GLU, between-group): −40.5% | Fecal Isovalerate, % (PLA vs. GLU, between-group): −18.9% | Fecal Lactate, % (PLA vs. GLU, between-group): 107.7% | Fecal Leucine, % (PLA vs. GLU, between-group): −28.4% | Fecal Lysine, % (PLA vs. GLU, between-group): −32.1% | Fecal Methionine, % (PLA vs. GLU, between-group): −23.7% | Fecal Methionine-sulfoxide, % (PLA vs. GLU, between-group): 37.4% | Fecal N-Acetylglucosamine, % (PLA vs. GLU, between-group): −34.9% | Fecal Nicotinate, % (PLA vs. GLU, between-group): −6.6% | Fecal Phenylacetate, % (PLA vs. GLU, between-group): −30.6% | Fecal Phenylalanine, % (PLA vs. GLU, between-group): −15.6% | Fecal Proline, % (PLA vs. GLU, between-group): −5.7% | Fecal Propionate, % (PLA vs. GLU, between-group): −10.0% | Fecal Putrescine, % (PLA vs. GLU, between-group): 5.0% | Fecal Ribose, % (PLA vs. GLU, between-group): −37.4% | Fecal Succinate, % (PLA vs. GLU, between-group): 8.0% | Fecal Threonine, % (PLA vs. GLU, between-group): −31.8% | Fecal Total AA, % (PLA vs. GLU, between-group): −31.0% | Fecal Total BCAAs, % (PLA vs. GLU, between-group): −36.5% | Fecal Total SCFA, % (PLA vs. GLU, between-group): −1.3% | Fecal Tyrosine, % (PLA vs. GLU, between-group): −30.5% | Fecal Uracil, % (PLA vs. GLU, between-group): −34.7% | Fecal Urocanate, % (PLA vs. GLU, between-group): −38.7% | Fecal Valerate, % (PLA vs. GLU, between-group): −36.0% | Fecal Valine, % (PLA vs. GLU, between-group): −42.4% | Fecal Xylose, % (PLA vs. GLU, between-group): 70.8% | Fecal p-Cresol, % (PLA vs. GLU, between-group): −27.7% | Fecal glutamate, isoleucine, leucine and valine content (compared to baseline, p<0.05): significantly reduced | Total amino acids, change (compared to baseline, p<0.05): −21% | Total branched-chain amino acid, change (compared to baseline, p<0.05): −24% | Fecal nucleotides (uracil) (compared to baseline, p=0.02): significantly reduced | Effect on individual or total short-chain fatty acids (p>0.05): no effect
